The values below come from patent publication EP1707622A1, “USE OF COMPOUNDS THAT REGULATE HDAC6 TUBULIN DEACETYLASE ACTIVITY IN THE PREPARATION OF PHARMACEUTICAL COMPOSITIONS, METHOD OF IDENTIFYING THE AFOR[…], SAID PHARMACEUTICAL COMPOUNDS AND APPLICATIONS THEREOF” (UNIVERSIDAD AUTONOMA DE MADRID CIUDAD UNIVERSITARIA …, priority 2004, dated 2005).

Where a SMILES comes first, the peptide text is derived from it. [ ]: non-standard residue; d: D form. Aoe = N[C@@H](CCCCCC(=O)[C@@H]1CO1)C(=O)O

The experiment concerns J77 cells. The experiment is described as follows: CD3 clustering in the central region of the immunological synapse. The class given is cell-based, human. Conditions: J77 cells, relative to cells transfected with the deficient mutant or lymphocytes treated with TSA; Figure 5B.

`O=C1N[C@@H](Cc2ccccc2)C(=O)N2CCC[C@@H]2C(=O)N[C@@H](CCCCCC(=O)[C@@H]2CO2)C(=O)N[C@H]1Cc1ccccc1` [trapoxin B] (cyclo(FF[dP][Aoe])): the “percentage of mature synapses” value was “neither trapoxin B nor sodium butyrate modified it in a significant manner”.
As to `CCCC(=O)[O-].[Na+]` [sodium butyrate], the “percentage of mature synapses” value is listed as “neither trapoxin B nor sodium butyrate modified it in a significant manner”.
